Test results published in the Kinase Knowledgebase extract (Sharma et al. 2016).

Legend:
Assay in all cases: Enzyme Assay
PIK3CA (human) = PIK3CA (human) (UniProt P42336)
PIK3CG (human) = PIK3CG (human) (UniProt P48736)
MAPK14 (human) = MAPK14 (human) (UniProt Q16539)
CDK2 (human) = CDK2 (human) (UniProt P24941)

Chain of MAPK14 (human) (Q16539 whole entry, looked up): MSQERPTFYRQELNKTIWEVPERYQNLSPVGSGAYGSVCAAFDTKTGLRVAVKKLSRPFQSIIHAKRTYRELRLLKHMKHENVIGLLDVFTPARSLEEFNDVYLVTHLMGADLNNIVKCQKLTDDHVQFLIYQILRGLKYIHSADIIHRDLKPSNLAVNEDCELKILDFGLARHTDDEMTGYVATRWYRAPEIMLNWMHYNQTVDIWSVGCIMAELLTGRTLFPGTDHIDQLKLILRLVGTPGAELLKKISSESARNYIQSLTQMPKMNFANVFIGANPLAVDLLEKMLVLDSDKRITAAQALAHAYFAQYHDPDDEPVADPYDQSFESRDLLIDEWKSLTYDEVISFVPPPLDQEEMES
Chain of PIK3CG (human) (P48736 whole entry, looked up): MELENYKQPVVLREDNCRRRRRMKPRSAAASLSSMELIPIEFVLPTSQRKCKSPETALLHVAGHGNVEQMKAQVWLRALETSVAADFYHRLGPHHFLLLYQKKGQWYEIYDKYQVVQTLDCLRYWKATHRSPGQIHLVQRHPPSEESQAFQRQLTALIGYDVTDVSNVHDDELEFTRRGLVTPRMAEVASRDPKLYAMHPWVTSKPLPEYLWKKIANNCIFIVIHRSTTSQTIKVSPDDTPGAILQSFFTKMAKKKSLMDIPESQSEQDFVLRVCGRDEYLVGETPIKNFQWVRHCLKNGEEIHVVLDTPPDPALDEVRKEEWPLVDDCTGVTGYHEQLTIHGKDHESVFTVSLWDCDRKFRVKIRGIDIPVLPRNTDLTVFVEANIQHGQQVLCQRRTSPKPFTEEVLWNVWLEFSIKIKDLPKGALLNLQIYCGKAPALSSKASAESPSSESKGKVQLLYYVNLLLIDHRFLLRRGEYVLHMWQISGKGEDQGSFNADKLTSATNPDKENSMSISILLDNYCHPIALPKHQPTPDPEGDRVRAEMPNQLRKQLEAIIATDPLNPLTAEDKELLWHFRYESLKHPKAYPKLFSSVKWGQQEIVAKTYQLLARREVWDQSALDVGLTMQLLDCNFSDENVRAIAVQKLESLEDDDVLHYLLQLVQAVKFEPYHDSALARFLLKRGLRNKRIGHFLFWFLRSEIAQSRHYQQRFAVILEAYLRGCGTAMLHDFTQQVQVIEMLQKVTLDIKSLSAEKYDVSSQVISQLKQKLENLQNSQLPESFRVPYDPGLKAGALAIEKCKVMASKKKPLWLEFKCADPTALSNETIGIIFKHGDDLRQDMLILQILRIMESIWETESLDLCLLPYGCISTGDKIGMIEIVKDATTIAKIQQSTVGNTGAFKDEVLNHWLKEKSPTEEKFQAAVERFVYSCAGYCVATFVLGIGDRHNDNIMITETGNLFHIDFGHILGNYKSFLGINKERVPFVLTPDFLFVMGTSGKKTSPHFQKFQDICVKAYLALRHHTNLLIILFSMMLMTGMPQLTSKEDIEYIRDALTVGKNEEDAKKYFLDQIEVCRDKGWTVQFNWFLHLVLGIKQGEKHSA
Chain of PIK3CA (human) (P42336 whole entry, looked up): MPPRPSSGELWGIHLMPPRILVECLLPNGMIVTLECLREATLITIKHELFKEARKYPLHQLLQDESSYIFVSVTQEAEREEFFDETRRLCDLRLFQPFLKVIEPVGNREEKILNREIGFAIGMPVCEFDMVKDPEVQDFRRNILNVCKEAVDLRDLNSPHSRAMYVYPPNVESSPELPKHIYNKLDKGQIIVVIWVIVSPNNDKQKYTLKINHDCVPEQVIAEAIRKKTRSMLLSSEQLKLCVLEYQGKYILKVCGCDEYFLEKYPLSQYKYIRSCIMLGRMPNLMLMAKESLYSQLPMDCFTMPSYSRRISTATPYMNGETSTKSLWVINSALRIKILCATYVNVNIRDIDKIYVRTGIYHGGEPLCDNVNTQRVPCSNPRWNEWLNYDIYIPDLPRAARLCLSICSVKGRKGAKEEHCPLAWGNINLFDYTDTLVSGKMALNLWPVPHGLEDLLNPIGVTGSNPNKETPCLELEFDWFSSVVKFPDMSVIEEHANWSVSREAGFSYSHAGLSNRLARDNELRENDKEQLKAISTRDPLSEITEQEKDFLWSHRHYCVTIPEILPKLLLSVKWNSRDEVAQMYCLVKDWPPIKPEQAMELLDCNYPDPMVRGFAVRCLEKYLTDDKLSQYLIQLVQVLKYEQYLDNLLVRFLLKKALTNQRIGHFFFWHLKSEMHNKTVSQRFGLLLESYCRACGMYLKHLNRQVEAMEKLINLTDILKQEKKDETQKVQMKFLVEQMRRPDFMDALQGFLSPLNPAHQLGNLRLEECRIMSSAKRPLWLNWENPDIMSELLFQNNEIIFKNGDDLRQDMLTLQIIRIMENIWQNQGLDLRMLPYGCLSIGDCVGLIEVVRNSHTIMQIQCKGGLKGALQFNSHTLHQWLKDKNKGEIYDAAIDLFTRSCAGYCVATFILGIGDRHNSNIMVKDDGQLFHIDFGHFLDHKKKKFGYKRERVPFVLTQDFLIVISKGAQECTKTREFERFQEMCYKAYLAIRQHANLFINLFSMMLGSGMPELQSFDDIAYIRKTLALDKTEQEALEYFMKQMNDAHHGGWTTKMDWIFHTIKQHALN

SMILES | IC50 (PIK3CA (human)) [µM] | IC50 (PIK3CG (human)) [µM] | IC50 (MAPK14 (human)) [µM] | IC50 (CDK2 (human)) [µM]
COc1cc2ncc3c4ccc(C#N)cc4[nH]c3c2cc1OC | 1.7 | 3.4 | > 88.8 | 0.599
COCCOc1cc2ncc3c4ccc(C#N)cc4[nH]c3c2cc1OC | – | – | > 45.6 | 1.21
COc1cc2c(cc1OC1CCN(C)CC1)ncc1c3ccc(C#N)cc3[nH]c21 | – | – | 6.82 | 5.7
COc1cc2c(cc1OCCN(C)C)ncc1c3ccc(C#N)cc3[nH]c21 | – | – | > 49.4 | 1.01
COc1cc2c(cc1OCCCN(C)C)ncc1c3ccc(C#N)cc3[nH]c21 | > 7.25 | > 7.25 | > 36.2 | 4.35
COc1cc2c(cc1OCCCN1CCN(C)CC1)ncc1c3ccc(C#N)cc3[nH]c21 | – | – | > 47 | 0.479
COc1cc2c(cc1OCC1CCCCN1C)ncc1c3ccc(C#N)cc3[nH]c21 (stereo not drawn) | – | – | > 50 | 1.1
